Experiments:
[1] = system: normal human skin fibroblasts; experiment: Neu5Gc/ManNGc feeding experiment, normal (WT) fibroblasts, DMB-HPLC; type: cell-based; conditions: normal wild-type (WT) fibroblasts, fed 3 mM for 3 days
Procedure: Neu5Gc and ManNGc Feeding Experiment—Neu5Ac, Neu5Gc or ManNGc were dried, dissolved in the appropriate media supplemented with heat-inactivated human serum, sterilized using a Spin-X® (Corning Inc., Corning, N.Y.) and then added to the cells. The pH of the media containing Sia was adjusted to neutrality using sterilized 1M NaOH before starting the feeding experiment. Cells were cultured in the presence of up to 3 mM free Sia or ManNGc for 1 or 3 days at 37° C. At the end of the feeding, cells were washed with cold PBS, harvested either by scraping or with 2 mM EDTA for fibroblasts, and washed again with cold PBS prior to fractionation.
Fractionation of the Labeled Cells—Washed cell pellets were sonicated into 500 μL of 20 mM sodium phosphate buffer or 20 mM Tris-HCl, pH 7.5, using 4×15 second pulses of a sonicator cell disrupter, model Some Dismembrator (Fisher Scientific, Hampton, N.J.) at a probe setting of 3. The sonicate was centrifuged at 75×g for 15 min., and the pellet Obtained consisted primarily of nuclei and unbroken cells. The pellet contained <5% of the incorporated sialic acid as determined using a radioactive tracer (data not shown.) The supernatant was therefore considered as the “total homogenate” fraction. A portion (20%) of the “total homogenate” fraction was taken for protein quantification and Sia analysis by DMB derivatization and HPLC analysis (as discussed below.) The remainder was centrifuged at 100,000×g for 1 h. The resulting pellet, called the “membrane” fraction, was then resuspended by sonication (15 sec.) in 200 μl of sodium acetate buffer, pH 5.5. The 100,000×g supernatant, called the “soluble” fraction was adjusted to 90% ethanol using absolute ice-cold ethanol, and placed overnight at −20° C. The flocculant precipitate, which represents the “soluble protein” fraction, was washed 3 times with 90%® ice-cold ethanol and then resuspended in 200 μl of water. The supernatant fluid representing the cytosolic low molecular weight (LMW) fraction was dried and brought up in 100 μL with water prior to Sia analysis. All the Sias in these fractions were released with mild acid hydrolysis if necessary and then analyzed by HPLC after DMB derivatization. Protein quantification was performed on the total homogenate, membrane and soluble protein fractions by using the BCA protein assay kit from Pierce (Rockford, Ill.) In some experiments, the resulting data obtained for the Sia bound to the membrane fraction and to the soluble proteins were pooled and presented here as a High Molecular Weight (HMW) fraction.
Sialic Acid Release, DMB Derivatization and HPLC Analysis—The bound Sias from the total homogenate, membrane and soluble protein fractions were released using 2M acetic acid hydrolysis, 3 h. at 80° C. The released Sias, or free Sias, contained in the soluble LMW fraction were passed through a Microcon® YM-10 filter (Millipore, Bedford, Mass.) prior to DMB derivatization, which was done according to Hara et al., 1989. DMB-Sia derivatives from the different fractions were then analyzed by HPLC using a C18 column (Microsorb MV-TM 100 A, Varian, Palo Alto, Calif.) Isocratic elution was achieved using 7% methanol, 8% acetonitrile in water during 50 min. at 0.9 ml/min flow. The eluant was monitored by fluorescence.
Quantification of Sias—For all HPLC chromatograms, the quantification of Sias was done by comparison with known quantities of DMB derivatized Neu5Gc and Neu5Ac used as standards and then reported in terms of pmoles of Sia. […]

[2] = system: Caco-2 cells; experiment: Endocytosis inhibition experiments (Neu5Gc incorporation); type: cell-based, human; conditions: Caco-2, 2 h pre-treatment with drug, then 3 mM Neu5Gc
Procedure: The sonicate was centrifuged at 75×g for 15 min., and the pellet Obtained consisted primarily of nuclei and unbroken cells. […] A portion (20%) of the “total homogenate” fraction was taken for protein quantification and Sia analysis by DMB derivatization and HPLC analysis (as discussed below.) The remainder was centrifuged at 100,000×g for 1 h. The resulting pellet, called the “membrane” fraction, was then resuspended by sonication (15 sec.) in 200 μl of sodium acetate buffer, pH 5.5. The 100,000×g supernatant, called the “soluble” fraction was adjusted to 90% ethanol using absolute ice-cold ethanol, and placed overnight at −20° C. The flocculant precipitate, which represents the “soluble protein” fraction, was washed 3 times with 90%® ice-cold ethanol and then resuspended in 200 μl of water. The supernatant fluid representing the cytosolic low molecular weight (LMW) fraction was dried and brought up in 100 μL with water prior to Sia analysis. All the Sias in these fractions were released with mild acid hydrolysis if necessary and then analyzed by HPLC after DMB derivatization. Protein quantification was performed on the total homogenate, membrane and soluble protein fractions by using the BCA protein assay kit from Pierce (Rockford, Ill.) In some experiments, the resulting data obtained for the Sia bound to the membrane fraction and to the soluble proteins were pooled and presented here as a High Molecular Weight (HMW) fraction. Sialic Acid Release, DMB Derivatization and HPLC Analysis—The bound Sias from the total homogenate, membrane and soluble protein fractions were released using 2M acetic acid hydrolysis, 3 h. at 80° C. The released Sias, or free Sias, contained in the soluble LMW fraction were passed through a Microcon® YM-10 filter (Millipore, Bedford, Mass.) prior to DMB derivatization, which was done according to Hara et al., 1989. […] The eluant was monitored by fluorescence. Quantification of Sias—For all HPLC chromatograms, the quantification of Sias was done by comparison with known quantities of DMB derivatized Neu5Gc and Neu5Ac used as standards and then reported in terms of pmoles of Sia. For total homogenate, membrane and cytosolic protein fractions, this number was expressed per mg of protein. Due to minor sample-to-sample variations in amounts and recoveries, the data in the Figures is presented as percent of Neu5Gc over total Sias, rather than as absolute amounts. Endocytosis Inhibition Experiments—Caco-2 or normal fibroblast cells were split and cultured in alpha-MEM media supplemented respectively with 20% or 15% human serum for 4 days before starting the endocytosis drug inhibition experiments in order to deplete any Neu5Gc derived from FCS. Cells were then pre-treated for 2 h. with the specific inhibitors under the same culture conditions. Fresh media containing the same amount of inhibitor and 3 mM of Neu5Gc was then added to the cells, which were incubated for 16 h or 3 days and finally harvested and fractionated as described above.

[3] = system: human LB EBV-transformed lymphoblasts; experiment: Neu5Gc/Neu5Ac feeding experiment, human lymphoblasts; type: cell-based; conditions: human lymphoblasts fed 3 mM Neu5Ac for 3 days
Procedure: Cell Culture—Caco-2 cells were propagated in alpha-MEM containing GLUTAMAX™ (Invitrogen, San Diego, Calif.) and a mixture of ribonucleosides and deoxyribonucleosides (Gibco/Invitrogen, San Diego, Calif.) supplemented with 20% FCS. All the fibroblast cell lines and CHO-K1 cells were cultured in the same media supplemented respectively with 15% non-heat inactivated FCS or 10% heat inactivated FCS. Chimpanzee Fred and human LB EBV-transformed lymphoblasts were cultured in RPMI-1640 (Gibco/Invitrogen, San Diego, Calif.) supplemented with 10% heat inactivated FCS or 15% human serum. All of the cultures were maintained at 37° C., 5% CO2 atmosphere. In order to deplete any remaining Neu5Gc from FCS, the cells were split and cultured prior to Neu5Gc feeding experiments for at least 4 days in alpha-MEM supplemented with an adequate percentage of heat-inactivated premium human serum instead of FCS. The cells were then maintained under the same conditions during the whole feeding experiment. The human serum was heat inactivated at 56° C. for 30 min. before use.
Neu5Gc and ManNGc Feeding Experiment—Neu5Ac, Neu5Gc or ManNGc were dried, dissolved in the appropriate media supplemented with heat-inactivated human serum, sterilized using a Spin-X® (Corning Inc., Corning, N.Y.) and then added to the cells. The pH of the media containing Sia was adjusted to neutrality using sterilized 1M NaOH before starting the feeding experiment. Cells were cultured in the presence of up to 3 mM free Sia or ManNGc for 1 or 3 days at 37° C. […]
Fractionation of the Labeled Cells—Washed cell pellets were sonicated into 500 μL of 20 mM sodium phosphate buffer or 20 mM Tris-HCl, pH 7.5, using 4×15 second pulses of a sonicator cell disrupter, model Some Dismembrator (Fisher Scientific, Hampton, N.J.) at a probe setting of 3. […] The pellet contained <5% of the incorporated sialic acid as determined using a radioactive tracer (data not shown.) The supernatant was therefore considered as the “total homogenate” fraction. A portion (20%) of the “total homogenate” fraction was taken for protein quantification and Sia analysis by DMB derivatization and HPLC analysis (as discussed below.) The remainder was centrifuged at 100,000×g for 1 h. […] All the Sias in these fractions were released with mild acid hydrolysis if necessary and then analyzed by HPLC after DMB derivatization. Protein quantification was performed on the total homogenate, membrane and soluble protein fractions by using the BCA protein assay kit from Pierce (Rockford, Ill.) In some experiments, the resulting data obtained for the Sia bound to the membrane fraction and to the soluble proteins were pooled and presented here as a High Molecular Weight (HMW) fraction. […]

[4] = system: Caco-2 cells; experiment: Competition of free Neu5Ac with free Neu5Gc for incorporation; type: cell-based, human; conditions: Caco-2, 3 mM Neu5Gc 3 days, in the presence of 15 mM Neu5Ac
Procedure: Neu5Gc and ManNGc Feeding Experiment—Neu5Ac, Neu5Gc or ManNGc were dried, dissolved in the appropriate media supplemented with heat-inactivated human serum, sterilized using a Spin-X® (Corning Inc., Corning, N.Y.) and then added to the cells. The pH of the media containing Sia was adjusted to neutrality using sterilized 1M NaOH before starting the feeding experiment. […] At the end of the feeding, cells were washed with cold PBS, harvested either by scraping or with 2 mM EDTA for fibroblasts, and washed again with cold PBS prior to fractionation.
Fractionation of the Labeled Cells—Washed cell pellets were sonicated into 500 μL of 20 mM sodium phosphate buffer or 20 mM Tris-HCl, pH 7.5, using 4×15 second pulses of a sonicator cell disrupter, model Some Dismembrator (Fisher Scientific, Hampton, N.J.) at a probe setting of 3. […] The pellet contained <5% of the incorporated sialic acid as determined using a radioactive tracer (data not shown.) The supernatant was therefore considered as the “total homogenate” fraction. A portion (20%) of the “total homogenate” fraction was taken for protein quantification and Sia analysis by DMB derivatization and HPLC analysis (as discussed below.) The remainder was centrifuged at 100,000×g for 1 h. […] All the Sias in these fractions were released with mild acid hydrolysis if necessary and then analyzed by HPLC after DMB derivatization. […]

For `O=C(CO)N[C@@H]1C(O)O[C@H](CO)[C@@H](O)[C@@H]1O` (stereo partly drawn) [ManNGc, N-glycolylmannosamine], the “percent of Neu5Gc in membrane-bound glycoconjugates” value [1] was 19%.
In the case of `C[C@@H]1[C@H](O)[C@@H](C)/C=C/C=C/CC/C=C/C=C/C=C/C=C/C(O[C@H]2O[C@H](C)[C@@H](O)[C@H](N)[C@@H]2O)CC2O[C@](O)(CC(O)C(O)CCC(O)CC(O)CC(O)CC(=O)O[C@H]1C)CC(O)C2C(=O)O` (stereo partly drawn) [nystatin], the “Neu5Gc incorporation into membrane-bound glycoconjugates in the presence of inhibitor” value [2] is reported as 44% and the “incorporation of Neu5Gc in the TH fraction in the presence of inhibitor” value [2] is reported as ~65%.
`CC(=O)N[C@H]1[C@H]([C@H](O)[C@H](O)CO)OC(O)(C(=O)O)C[C@@H]1O` (stereo partly drawn) [Neu5Ac, N-acetylneuraminic acid] was tested, and the “Neu5Gc detected in the cells” value [3] was “almost no detectable Neu5Gc” and the “Neu5Gc (percent of total Sia) in the membrane-bound fraction” value [4] was “almost to zero”.
In the case of `CN(C)CCCN1c2ccccc2Sc2ccc(Cl)cc21` [chlorpromazine], the “Neu5Gc incorporation into membrane-bound glycoconjugates in the presence of inhibitor” value [2] is reported as 50%.
